How the values were obtained:
Test in all cases: relative viability (nuclei count vs DMSO), 5 days (fraction); higher = more cells survive
[1] = compound: CCn1c(-c2nonc2N)nc2cnc(Oc3cccc(NC(=O)c4ccc(OCCN5CCOCC5)cc4)c3)cc21 + COc1cccc2cc(-c3nc([C@H]4CC[C@H](C(=O)O)CC4)n4ncnc(N)c34)[nH]c12 [OSI-027] (partner 0.5 µM)
Procedure, shortened: (§1)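 Five library-drug doses in √10 steps were combined with a fixed anchor-drug dose, or a single drug was given alone, by pin tool to lung cancer cell lines in 1536-well plates the day after seeding. Nuclei were stained and counted after 5 days. Relative viability is the nuclei count in treated wells over that in vehicle wells, taken as the median of duplicate plates.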

[2] = compound: CCC1=CN=CN=C1N2CCN(CC2)CC3=NC4=C(N3)C=C(C=C4)C(F)(F)F + Nc1ncn([C@H]2C[C@H](O)[C@@H](CO)O2)c(=O)n1 [Decitabine] (partner 2 µM)
Procedure, shortened: as §1

[3] = compound: N=C1NC(=O)/C(=C/c2ccc(O)cc2)S1 [Mirin] + COc1cc2c(Oc3ccc(NC(=O)C4(C(=O)Nc5ccc(F)cc5)CC4)cc3F)ccnc2cc1OCCCN1CCOCC1 [Foretinib] (partner 0.25 µM)
Procedure, shortened: as §1

[4] = compound: CCC1=CN=CN=C1N2CCN(CC2)CC3=NC4=C(N3)C=C(C=C4)C(F)(F)F + C[C@]1(O)C[C@@H](c2nc(-c3ccc4ccc(-c5ccccc5)nc4c3)c3c(N)nccn32)C1 [Linsitinib] (partner 1 µM)
Procedure, shortened: as §1

In the case of UMC-11, the relative viability ([1]; first compound 0.04 µM) is reported as 0.44, the relative viability ([1]; first compound 0.1265 µM) is reported as 0.41 and the relative viability ([1]; first compound 0.4 µM) is reported as 0.355. The relative viability ([1]; first compound 1.265 µM) was 0.208, the relative viability ([1]; first compound 4 µM) was 0.179 and the relative viability ([2]; first compound 0.04 µM) was 0.622. It also gave a relative viability ([2]; first compound 0.1265 µM) of 0.562, a relative viability ([2]; first compound 0.4 µM) of 0.602 and a relative viability ([2]; first compound 1.265 µM) of 0.379. For the same cell line, the relative viability ([2]; first compound 4 µM) was 0.351, the relative viability ([3]; first compound 0.25 µM) was 1.03 and the relative viability ([3]; first compound 0.7906 µM) was 1.05. The relative viability ([3]; first compound 2.5 µM) was 1, the relative viability ([3]; first compound 7.906 µM) was 0.918 and the relative viability ([3]; first compound 25 µM) was 0.61. For the same cell line, the relative viability ([4]; first compound 0.04 µM) was 1.03, the relative viability ([4]; first compound 0.1265 µM) was 1.02 and the relative viability ([4]; first compound 0.4 µM) was 1.03. The relative viability ([4]; first compound 1.265 µM) was 0.958 and the relative viability ([4]; first compound 4 µM) was 0.944.
